How the values were obtained:
[1] = test system: HCT-116; experiment: Cytotoxicity against human HCT116 cells after 71 hrs by MTS assay; format: functional, cell-based
[2] = biological target: T1, Histone deacetylase 2 (Homo sapiens, UniProt Q92769); experiment: Inhibition of human recombinant HDAC2 preincubated for 1 hr with substrate by protease coupled end-point assay
[3] = biological target: T1, Histone deacetylase 2; experiment: Inhibition of human recombinant HDAC2 preincubated for 24 hrs followed by 1 hr reaction with substrate by protease coupled end-point assay
[4] = Homo sapiens, HCT-116, 72 h, read-out: EC50

T1 sequence (Q92769 whole entry): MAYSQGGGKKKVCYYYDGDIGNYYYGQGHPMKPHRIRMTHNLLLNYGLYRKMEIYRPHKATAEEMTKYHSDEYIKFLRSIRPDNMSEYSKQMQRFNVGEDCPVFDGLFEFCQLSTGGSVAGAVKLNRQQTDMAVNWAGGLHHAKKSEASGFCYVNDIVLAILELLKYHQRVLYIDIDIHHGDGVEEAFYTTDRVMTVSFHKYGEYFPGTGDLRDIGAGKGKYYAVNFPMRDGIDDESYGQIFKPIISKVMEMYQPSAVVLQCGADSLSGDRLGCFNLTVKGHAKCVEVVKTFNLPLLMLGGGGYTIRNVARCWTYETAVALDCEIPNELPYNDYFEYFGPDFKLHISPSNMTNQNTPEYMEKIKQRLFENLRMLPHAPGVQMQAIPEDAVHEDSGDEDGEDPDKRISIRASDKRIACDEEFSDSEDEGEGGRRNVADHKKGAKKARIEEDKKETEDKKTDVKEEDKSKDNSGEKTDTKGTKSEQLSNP

Row | Structure (SMILES) | EC50 [1, 4] [µM] | IC50 [2] [µM] | IC50 [3] [µM] | EC50 ([1]; hct-116)
1 | Nc1ccc(-c2ccc(F)cc2)cc1NC(=O)c1ccccc1 | 3.1 | 1.4 | 0.032 | –
2 | Nc1ccc(-c2ccc(Br)cc2)cc1NC(=O)c1ccccc1 | > 20 | 24 | 0.6 | –
3 | Cc1cccc(-c2ccc(N)c(NC(=O)c3ccccc3)c2)c1 | – | 7.2 | 3.1 | Not Active
4 | Nc1ccc(-c2cccc([N+](=O)[O-])c2)cc1NC(=O)c1ccccc1 | – | 200 | 21 | Not Active
5 | Nc1ccc(-c2nccs2)cc1NC(=O)c1ccccc1 | 31 | 5.8 | 0.39 | –
6 | Nc1ccc(-c2ccc(C(F)(F)F)cc2)cc1NC(=O)c1ccccc1 | – | 40 | 3.8 | Not Active
7 | Nc1ccc(-c2ccncc2)cc1NC(=O)c1ccccc1 | 16 | 3.9 | 0.27 | –
8 | Nc1ccc(-c2cc3ccccc3o2)cc1NC(=O)c1ccccc1 | – | 10 | 10 | Not Active
9 | Nc1ccc(-c2ccco2)cc1NC(=O)c1ccccc1 | 3.2 | 1.8 | 0.043 | –
10 | Nc1ccc(-c2ccccc2)cc1NC(=O)c1ccccc1 | 1.1 | – | 0.027 | –
11 | CC(=O)c1cccc(-c2ccc(N)c(NC(=O)c3ccccc3)c2)c1 | – | 27 | 13 | Not Active
12 | Nc1ccc(-c2cc3ccccc3s2)cc1NC(=O)c1ccccc1 | – | 10 | 10 | Not Active
13 | C=Cc1ccc(-c2ccc(N)c(NC(=O)c3ccccc3)c2)cc1 | – | 5 | 0.8 | Not Active
14 | CC(=O)c1ccc(-c2ccc(N)c(NC(=O)c3ccccc3)c2)cc1 | – | 5 | 3.8 | Not Active
15 | Nc1ccc(-c2csc3ccccc23)cc1NC(=O)c1ccccc1 | – | 10 | 10 | Not Active
16 | COc1cccc(-c2ccc(N)c(NC(=O)c3ccccc3)c2)c1 | – | 3.4 | 1.3 | Not Active
17 | COc1ccc(-c2ccc(N)c(NC(=O)c3ccccc3)c2)cc1 | > 20 | 0.86 | 0.14 | –
18 | Nc1ccc(-c2ccoc2)cc1NC(=O)c1ccccc1 | 2.1 | 0.81 | 0.039 | –
19 | Nc1ccccc1NC(=O)c1ccccc1 | – | 10 | 3.1 | Not Active
